Source: the supplement of paper PMC10307832

Key:
Assay in all cases: relative viability (nuclei count vs DMSO), 5 days (fraction); higher = more cells survive
[1] = compound: O=S(=O)(c1ccccc1)N(CC(F)(F)F)c1ccc(C(O)(C(F)(F)F)C(F)(F)F)cc1 + NC(=O)Nc1cc(-c2cccc(F)c2)sc1C(=O)N[C@H]1CCCNC1 [AZD7762] (partner 0.2 µM)
Procedure, shortened: (§1)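 A single step with final 0.05% Triton X-100, 1% formaldehyde and 1 ug/ml Hoechst fixed the cells and stained nuclei 5 days after treatment. Lung cancer cell lines in 1536-well plates had been treated by pin tool the day after seeding with one drug alone or a fixed anchor-drug dose plus five library-drug doses (not always all listed) in √10 steps, and nuclei were counted on 4× images. Relative viability is the ratio of nuclei in treated wells to nuclei in vehicle wells, taken as the median of duplicate plates.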

[2] = compound: O=S(=O)(c1ccccc1)N(CC(F)(F)F)c1ccc(C(O)(C(F)(F)F)C(F)(F)F)cc1 + CS(=O)(=O)CCNCc1ccc(-c2ccc3ncnc(Nc4ccc(OCc5cccc(F)c5)c(Cl)c4)c3c2)o1 [Lapatinib] (partner 2 µM)
Procedure, shortened: as §1

[3] = compound: C1=CC2=C(C=CC(=C2)C=C3C(=O)NC(=NCC4=CC=CS4)S3)N=C1 [RO-3306] + Cc1cc(Nc2cc(N3CCN(C)CC3)nc(Sc3ccc(NC(=O)C4CC4)cc3)n2)n[nH]1 [Tozasertib] (partner 0.1 µM)
Procedure, shortened: as §1

[4] = compound: C1=CC2=C(C=CC(=C2)C=C3C(=O)NC(=NCC4=CC=CS4)S3)N=C1 [RO-3306] + COc1cc2c(Oc3ccc(NC(=O)C4(C(=O)Nc5ccc(F)cc5)CC4)cc3F)ccnc2cc1OCCCN1CCOCC1 [Foretinib] (partner 0.25 µM)
Procedure, shortened: as §1

[5] = compound: O=S(=O)(c1ccccc1)N(CC(F)(F)F)c1ccc(C(O)(C(F)(F)F)C(F)(F)F)cc1 + Nc1ncn([C@H]2C[C@H](O)[C@@H](CO)O2)c(=O)n1 [Decitabine] (partner 2 µM)
Procedure, shortened: as §1

Cell Line	relative viability ([1]; first compound 0.8 µM)	relative viability ([1]; first compound 2.53 µM)	relative viability ([1]; first compound 8 µM)	relative viability ([2]; first compound 0.8 µM)	relative viability ([2]; first compound 2.53 µM)	relative viability ([2]; first compound 8 µM)	relative viability ([3]; first compound 0.01 µM)	relative viability ([3]; first compound 0.03162 µM)	relative viability ([3]; first compound 0.1 µM)	relative viability ([3]; first compound 0.3162 µM)	relative viability ([3]; first compound 1 µM)	relative viability ([4]; first compound 0.01 µM)	relative viability ([4]; first compound 0.03162 µM)	relative viability ([4]; first compound 0.1 µM)	relative viability ([4]; first compound 0.3162 µM)	relative viability ([4]; first compound 1 µM)	relative viability ([5]; first compound 0.8 µM)	relative viability ([5]; first compound 2.53 µM)	relative viability ([5]; first compound 8 µM)
201T	0.797	0.617	0.637	1.01	0.949	1.03	1	0.933	0.925	0.975	0.964	1.28	1.27	1.01	1.03	0.613	0.846	0.858	0.834
A549				0.949	0.772	0.715						1.1	0.891	1	0.883	0.818	0.411	0.292	0.201
A-427	0.879	0.734	0.695	1.04	0.919	1.1	0.173	0.181	0.166	0.173	0.235	0.923	0.937	1.07	1.06	1.13	0.526	0.509	0.551
ABC-1	0.709	1.64	1.2	1.45	1.21	1.26	0.145	0.172	0.222	0.177	0.14	1.06	0.975	0.999	1.1	1.06		1.02	1.05
BEN	0.724	0.717	0.689	0.67	0.684	0.629	0.548	0.47	0.622	0.608	0.496	0.513	0.684	0.664	0.673	0.747	0.801	0.773	0.687
CAL-12T	0.482	0.566	0.522		0.531	0.592	0.364	0.245	0.303	0.371	0.261	1.18	1.06	1.16	1.07	1.23			
COR-L23				1.24	0.872	0.913	0.238	0.175	0.178	0.169	0.166	0.958	0.941	0.966	1.13	1.08	0.428	0.439	0.461
COR-L 105				0.377	0.386	0.371	0.361	0.337	0.329	0.379	0.32	1.74	1.23	1.06	1.17	0.859	0.63	0.679	0.649
Calu-6				0.945	0.901	0.966						0.948	0.957	0.973	0.942	0.82			
ChaGo-K-1	0.952	0.888	0.791				0.209	0.234	0.209	0.216	0.234	0.849	0.783	0.868	0.816	0.702	0.746	0.497	0.49
EBC-1				0.307	0.353	0.337						0.0936	0.118	0.101	0.121	0.0921			
EKVX	0.664	0.708	0.503	0.187	0.188	0.171	0.415	0.361	0.382	0.359	0.356	0.805	0.748	0.841	0.741	0.744	0.405	0.286	0.209
EMC-BAC-2	0.486	1.09	1.05	0.975	0.864	0.904	0.394	0.306	0.295	0.263	0.254	0.977	0.892	0.976	1.03	1.05	0.973	0.908	0.974
EPLC-272H	0.226	0.203	0.203	1.05	0.818	0.924	0.196	0.288	0.208	0.237	0.249	0.723	0.541	0.598	0.683	0.533	0.412	0.374	0.359
H3255	0.787	0.666	0.76	0.249	0.231	0.223	0.621	0.372	0.611	0.692	0.466	0.798	0.711	0.758	0.848	0.898	0.567	0.473	0.642
HARA	0.437		0.318	0.642	0.575	0.552	0.146	0.11	0.453	0.0948	0.101	1.08	0.58	0.884	0.882	0.767	0.426		0.657
HCC-15	1.18	1.17	1.16	0.933	0.866	0.748	0.438	0.342	0.345	0.383	0.301	1.19	0.954	0.963	1.01	0.93	0.562	0.419	0.5
HCC-44	1.04	0.988	0.994	1.07	1.04	0.998	1.17	0.947	0.925	0.873	0.676						1.03	0.968	0.991
HCC-78	0.647	0.552	0.535	0.61	0.592	0.614	0.436	0.4	0.515	0.431	0.448	0.487	0.568	0.595	0.564	0.573	0.748	0.714	0.599
HCC-366	0.277	0.317	0.14	1.29	1.13	0.951	0.123	0.0945	0.0992	0.0958	0.0525	0.91	0.96	0.942	0.884	0.931	0.394	0.376	0.242
IA-LM				0.903	0.68	0.752						1.48		0.956	1.12	1.3			

Cell Line	relative viability ([1]; first compound 0.8 µM)	relative viability ([1]; first compound 2.53 µM)	relative viability ([1]; first compound 8 µM)	relative viability ([2]; first compound 0.8 µM)	relative viability ([2]; first compound 2.53 µM)	relative viability ([2]; first compound 8 µM)	relative viability ([3]; first compound 0.01 µM)	relative viability ([3]; first compound 0.03162 µM)	relative viability ([3]; first compound 0.1 µM)	relative viability ([3]; first compound 0.3162 µM)	relative viability ([3]; first compound 1 µM)	relative viability ([4]; first compound 0.01 µM)	relative viability ([4]; first compound 0.03162 µM)	relative viability ([4]; first compound 0.1 µM)	relative viability ([4]; first compound 0.3162 µM)	relative viability ([4]; first compound 1 µM)	relative viability ([5]; first compound 0.8 µM)	relative viability ([5]; first compound 2.53 µM)	relative viability ([5]; first compound 8 µM)
LCLC-103H	0.841	0.826	0.948				0.439	0.45	0.405	0.458	0.499	0.695	0.647	0.779	0.719	0.835	0.739	0.743	0.734
NCI-H441	1.34	1.2	0.996				0.587	0.527	0.604	0.538	0.481	0.911	0.937	0.944	1.07	0.937	0.238	0.212	0.21
NCI-H520				1.07	0.84	1.01	0.44	0.481	0.39	0.426	0.394	0.843	0.663	0.854	0.694	0.839	0.457	0.478	0.493
NCI-H522	1.13	0.824	0.859				0.545	0.495	0.595	0.567	0.5						0.565	0.608	0.746
NCI-H661				0.606	0.466	0.465	0.333	0.382	0.351	0.339	0.337	1.01	1.07	0.981	0.985	0.999	0.612	0.569	0.498
NCI-H1299				0.923	0.952	0.879						1.17	1.1	1.15	1.14	1.17			
NCI-H1563				0.85	0.899	0.761						0.847	1.03	0.881	0.956	0.939			
NCI-H1623							0.45	0.409	0.442	0.446	0.391	0.908	0.749	0.761	0.823	0.739			
NCI-H1648	0.694	0.505	0.707				0.406		0.558	0.362	0.478						0.462	0.546	0.595
NCI-H1650				0.871	0.735	0.723	0.398	0.366	0.345	0.309	0.316	1.73	0.858	0.917	1.11	0.723	0.463	0.454	0.465
NCI-H1703	0.132	0.119	0.132	1.21	0.749	0.906						0.392		0.325	0.389	0.345			
NCI-H1792	0.841	0.616	0.441	0.932	0.783	0.665											0.562	0.395	0.562
NCI-H2009				0.922	0.804	0.844	0.816	0.707	0.722	0.671	0.707	1.32	1.24	1.2	1.19	1.2	0.366	0.372	0.369
NCI-H2023				0.742	0.743	0.55	0.401	0.327	0.254	0.241	0.308	1.17	0.71	0.818	0.702	0.943	0.221	0.233	0.221
NCI-H2228				1.32	0.964	1.5	0.225	0.219	0.221	0.168	0.223	0.759	0.808	0.954	0.641	0.635			
NCI-H2342	0.527	0.559	0.477				0.54	0.537	0.492	0.47	0.506	1.13	0.889	1.08	1.05	0.885	0.82	0.837	0.738
SK-LU-1				0.903	1.02	0.753	0.266	0.312	0.313	0.321	0.282	0.853	0.783	0.831	0.778	0.712	0.669	0.63	0.703
SK-MES-1				0.442	0.424	0.514	1.02	1	1.01	0.807	0.585	1.06	0.425	0.996	0.782	0.976	0.375	0.337	0.366
SW 900	0.609	0.53	0.709				0.659	0.474	0.444	0.438	0.329	0.965	1.12	0.68	0.806	0.644	0.417	0.427	0.429
SW 1573				1.18	1.2	1.06	0.198		0.17	0.175	0.168	0.89	0.879	0.934	0.993	0.887	0.542	0.543	0.541
